Assay results reported in patent US8974768B2, “Azo compounds reducing formation and toxicity of amyloid beta aggregation intermediates” (Max-Delbrueck-Centrum fuer Molekulare Medizin, priority 2010, dated 2015).
Like-named read-outs stand apart in the source and are kept apart here. Marks after values point to notes of the source that are not given here.

Legend:
[1] = tested on: Tg2576 mice; assay: Contextual fear conditioning in Tg2576 mice; assay type: in vivo, mouse; conditions: 9-month-old Tg2576 mice, feeding pellets for 12 weeks
Protocol: Groups of Tg2576 mice overexpressing the 695-amino acid isoform of human amyloid precursor protein containing a Lys670→Asn, Met671→Leu mutation (Hsiao, K. Science 1996) and wildtype control mice (13-21 per phenotype) were conditioned on day 1 by placing a subject mouse in a contextual fear conditioning chamber (Med Associates, […], Vt.). Exploration was allowed for 2 min, and an auditory cue was presented for 15 s accompanied by an electrical foot shock during the last 2 s. This procedure was repeated and mice were removed from the chamber after 30 s. Twenty hours later, mice were returned to the chamber in which conditioning occured, and their freezing behaviour (fear) was monitored. Freezing was defined as the lack of all movements, except those required for breathing (Comery, T. A., et al. Journal of Neuroscience, 2005). Data were analysed by two-way ANOVA in the S programming environment, followed by Fischer's least significant difference (LSD) pairwise comparison of group means at the p<0.05 significance level.
The contextual fear conditioning paradigm is a form of Pavlovian learning in which an association is made between stimuli and their aversive consequences. Studies of brain function implicate the amygdala in regulating fear, and the hippocampus in regulating the learning of the context in which a fearful event occurred.
The brain circuitry in wild type mice is intact and they are better able to associate an aversive foot shock with the context or environment in which the shock took place. They therefore show more freezing. Transgenic Alzheimer mice have compromised brain circuitry due to the toxic effects of amyloid-beta protein. They are therefore less able to associate an aversive shock with a context and show less freezing.
A substance that reverses the toxic effects of amyloid-beta in Alzheimer's mice will help in reconsolidating the impaired brain circuitry so that these mice begin to show more fear (freezing behavior) after treatment. This paradigm is therefore a robust method for showing the effect of drug candidate molecules in Alzheimer mice.

[2] = Detection of compounds in brain after in vivo administration
[3] = in vitro; conditions: human
[4] = tested on: 5XFAD mice; assay: Nest building behaviour in 5XFAD mice; assay type: in vivo, mouse
Protocol: 3a: Nestlet usage; 3b: Nestlet quality score.
One hour before the dark phase, mice were housed individually in a cage with wood-chip bedding material. Each mouse was given 3 g of nestlet material made of compressed cotton (Lillico Biotech, UK). The amount of intact, i.e. non-used, nesting material was weighed after 16 hours and nest building was assessed using the following rating scale (Deacon et al., 2006, Tomida et al., 2009): 1, >90% intact; 2, 50-90% intact; 3, 10-50% intact: 4, 0-10% intact, but flat nest; 5, 0-10%, with nests higher than the mice. The amount of intact nesting material was weighed. The data were non-normally distributed.
Non normally distributed data were analyzed by a Kruskal Wallis test. A post-hoc test using Mann-Whitney tests with Bonferroni corrections was then used for group comparisons.
Nest building is one of several species-typical behavior in mice seen in semi-naturalistic situations. […] Alzheimer's disease in 5XFAD mice will damage these areas, leading to memory impairments in some standard cognitive tests, and to an impairment of species-typical behaviors like nesting.
The brain circuitry of wild type mice is intact so they show robust nest building behavior. Transgenic 5XFAD on the other hand have impaired brain circuitry due to the noxious effects of human amyloid-beta protein. They are therefore less able to fulfill this important house-keeping species typical behavior (Deacon R M. (2006): Assessing nest building in mice. Nat Protoc. 2006; 1(3):1117-9; Tomida et al (2009): Usp46 is a quantitative trait gene regulating mouse immobile behavior in the tail suspension and forced swimming tests. Nat Genet. 2009 June; 41(6):688-95. Epub 2009 May 24.).

[5] = target: Aβ1-42 peptide (Homo sapiens, UniProt P05067); assay: Thioflavin T (Thio T)-assay of Aβ aggregation; assay type: biochemical
[6] = design: Detection in brain after i.v. administration: key to the marks not given beside the values; conditions: mouse, in vivo
[7] = transgenic and wild-type mice vs control mice

Chain of Aβ1-42 peptide (P05067 672-713): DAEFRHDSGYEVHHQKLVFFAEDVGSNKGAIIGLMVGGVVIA

| Structure (SMILES) | Contextual memory (freezing behaviour) [1] | Detection in brain after i.v. administration ([2]; B6C3 mouse, 5 mg/kg body weight i.v. once, brain samples) | Detection in brain after oral administration, feeding pellet preparation ([2]; mouse, brain samples after one week feeding) | Detection in brain after oral administration, oral gavage administration ([2]; mouse, five to seven doses over two or three days, sampling 30 min. after last application) | IC50 at 48 h [3] [nM] | Nest building behavior ([4]; 5XFAD mice, pelleted mouse chow for 8.5 months) | Nest building behavior in transgenic mice ([4]; transgenic 5XFAD mice, higher concentration (625 mg/kg feed) vs control mice) | Nest building behavior (nestlet usage, FIG. 3a) [4, 7] | Nestlet quality score (FIG. 3b) [4, 7] | IC50 ([5]; 30 μM Aβ1-42 peptide, 48 h at 37° C., vs DMSO control, read-out: ThioT: IC50) [nM] | Detection in brain after i.v. administration ([6]; iv, 5 mg/kg) | Detectability after oral administration ([6]; po) | Detection in brain after oral administration, feeding pellet preparation ([6]; po) | Detection in brain after oral administration, oral gavage administration ([6]; po) | IC50 [3] [nM] | IC50 [5] [nM] |
| --- | --- | --- | --- | --- | --- | --- | --- | --- | --- | --- | --- | --- | --- | --- | --- | --- |
| O=[N+]([O-])c1ccc(N=Nc2ccc(Nc3ccccc3)cc2)cc1 [Compound 2, 4-((4-nitrophenyl)diazenyl)-N-phenylaniline] | improvement | ++ | ++^a), b) | ++^a), b) | > 100000 | improved | significantly enhanced | increased | increases | 1700 |  |  |  |  |  |  |
| CN(C)c1ccc(N=Nc2ccc(N)cc2)cc1 [Compound 9, 4-((4-aminophenyl)diazenyl)-N,N-dimethylaniline] | improvement |  |  |  |  |  |  |  |  |  | ++ | excellent | ++^a)/+^b) | ++^a)/+^b) | > 100000 | 2100 |
